The conditions of the data set: rcm bond, Grubbs I, CH2Cl2, 40.0 °C.

We go through two compounds from US11230550.

Read-outs that look alike come from different tables or passages of the source.

`CC(C)(C)OC(=O)N[C@@H](Cc1ccccc1)[C@H](O)CN1CCCCC=CCOCc2cc([N+](=O)[O-])ccc2S1(=O)=O` had a ring closure, yield of all isomers (from C=CCCCCN(C[C@@H](O)[C@H](Cc1ccccc1)NC(=O)OC(C)(C)C)S(=O)(=O)c1ccc([N+](=O)[O-])cc1COCC=C, 1.625 mM, 3.0 h) of 92%.
On to `COc1ccc2c(c1)COCC=CCCCCN(C[C@@H](O)[C@H](Cc1ccccc1)NC(=O)OC(C)(C)C)S2(=O)=O`, for which the ring closure, yield of all isomers (from C=CCCCCN(C[C@@H](O)[C@H](Cc1ccccc1)NC(=O)OC(C)(C)C)S(=O)(=O)c1ccc(OC)cc1COCC=C, 2.65 mM, 4.0 h) was determined as 93%.
